One series deals with α1. In words: Radioligand binding affinity, α1.
In a further series the target is 5HT2. Kind of series: Radioligand binding affinity, 5HT2.
For a further series, the target named is hERG channel (Homo sapiens, UniProt Q12809). Kind of series: hERG voltage clamp assay in hERG-expressing cultured cells. In kind it is cell-based. As to conditions: approximate, from voltage clamp data, read-out: concentration necessary to inhibit 50% of the tail currents mediated by hERG channels. Background: hERG is a cardiac potassium channel; its block is linked to QT prolongation.

The subject of series [1] is gastric motility in canines. Kind of series: Antral manometry (gastric motility) in canines. In kind it is in vivo, canine (hound dogs). How it is done:
Two healthy female hound dogs (24-28 kg) were involved in this study. Animals were fed an ad libitum chow diet (LabDiet®). After an overnight fast, the dogs were anesthetized with Pentothal (sodium thiopental, 11 mg/kg IV; Abbott Laboratories, North Chicago, Ill.) and maintained on 2-4% isoflurane (Abbott Laboratories) in oxygen (1 L/min) carrier gases delivered from a ventilator after endotracheal intubation. A cannula was placed in the jejunum 20 cm distal to the pylorus for the assessment of antral motility. Dogs were allowed to recover in their individual cages for 2 weeks. All experiments were performed after the dogs were completely recovered from the surgical procedure. The study was performed according to the National Institutes of Health Guidelines on the use of laboratory animals and approved by the Animal Care and Use Committee of the University of Texas Medical Branch at Galveston, Tex. To investigate the effect of the drugs on antral manometry, the study of each drug dose was done on three randomized sessions on separate days following the consumption of one can of solid dog food: 1) a Control session: In which animals received the vehicle only; 2) Dose I session: in which the lower dose of the drug was used; and 3) Dose II session: in which the higher dose of the drug was used (please refer to table for drug doses). Drug administration was performed according to Table 4, below. Antral manometry was performed as follows. Following an overnight fast, an intraluminal water-perfused manometry catheter was inserted into the antrum through the jejunal cannula. Antral manometry recording was initiated after the consumption of one can of solid food and continued for 3 hours. The catheter contained 3 manometric sensors at a 1 cm interval. Dogs were given 10 minutes of accommodation, prior to the start of the recording. For data analysis, motility index (MI), defined as the integrated area (area under curve—AUC) between baseline and contractions per hour, was calculated. For statistical analysis, the Student's t-test was used for assessment of individual differences between groups (high dose, low dose of each drug) compared to control—Microsoft®Excel 2002). All values are expressed as mean±SEM. Significance was considered when p value was ≦0.05.

For series [2], the system named is gastric emptying in Sprague-Dawley rats. Kind of series: Solid gastric emptying in rodents. In kind it is in vivo, rat. Here is the method: The animals received a standard laboratory rat chow and tap water ad libitum. The rats were around 400 g at 14 weeks age when used in gastric emptying study. Drugs: S-Carbidopa was purchased from Sigma (#: C1335). Stock solution of S-Carbidopa was prepared at 5 mg/ml using DMSO as solvent. 80 μl stock solution was further diluted into 1 ml distilled water to make 0.4 mg/ml. The effect of S-Carbidopa (1 mg/kg) on solid gastric emptying was studied. Procedures: Male SD rats were involved in this study. Rats were fasted in cages with metal wired mesh for 24 hours with free access to water; S-carbidopa (1 mg/kg) was administered to the rats by oral gavage. Control rats were not administered S-carbidopa. 15 minutes following administration, rats were given access to 2 g of rat chow pellets for ten minutes. All rats completely ingested the chow within the 10 minute time frame. Rats were sacrificed by sodium pentobarbital (100 mg/kg) overdose 90 min after feeding. The stomach was surgically isolated and removed. Gastric contents were recovered from the stomach, air dried for 48 hours and then weighed. Solid gastric emptying was calculated according to the following formula: Gastric emptying (%)=[1−(dried gastric content in g)/2 g]×100. All values are expressed as mean±SEM.

For series [3], the system named is cardiac action potentials in dogs. Kind of series: Canine cardiac action potentials by electrocardiography and telemetry. In kind it is in vivo, dog. Particulars: for QTc intervals: oral gavage, 1-6 hours post-dose, vs vehicle. From the text: Surgical Implantation of the Telemetry Device and ECG Leads. Anesthesia is introduced to dogs. Balanced gaseous anesthesia is used throughout the surgical procedure. Once anesthetized, animals are shaved and surgically scrubbed, encompassing surgical sites of the right inguinal area, chest and right lateral abdomen. Throughout the surgical procedure, animals are monitored for continuous assessment of vital signs. An incision is made along the right medial thigh and the femoral artery exposed by blunt dissection. Another incision is made in the lateral lumbar area cranial to the iliac crest for a tunneling needle to be passed subcutaneously from the incision on the medial thigh to the lumbar incision. A blood pressure catheter is passed through the needle from the lumbar incision and the needle removed. The femoral artery is ligated distally and incised to insert a catheter that is advanced until the tip resided in the femoral artery/abdominal aorta. The catheter is then secured by ligation. The incision in the lumbar area is enlarged and a subcutaneous pocket created in the left dorsal lumbar area to hold the transmitter body. The transmitter (e.g., Data Sciences International, St Paul, Minn., USA) is inserted into the subcutaneous pocket and secured body. Electrocardiography (ECG) leads are positioned. The incision is closed. Postoperative recovery lasts, e.g., about 2 weeks during which supplemental analgesics/antibiotics are administered as needed. Once the postoperative recovery period is complete, the animal is examined for study acceptability by the staff veterinarian and the implanted transmitter signal verified.
Study Design. […] ECGs, heart rate and arterial blood pressure data are recorded 1 hour prior to and then continuously for at least 6 hours following compound and/or vehicle administration. A blood sample for determination of compound plasma concentrations is collected from all subjects at approximately 6 h post-dose.
ECG Analysis. An ECG waveform morphology assessment for the entire monitoring period is completed for each dog by a safety pharmacologist or veterinarian cardiologist. Standard ECG intervals (PR, RR, QRS and QT) are automatically measured by the data acquisition system and reported as, e.g., 10 min averages. The signals are collected with Data Sciences International Systems hardware. PR and QT manual overreads are conducted as appropriate. The manual measurements are completed from 50 mm s^−1 tracings at 30 min intervals. A mean of the three waveforms per time point are reported. QT intervals are corrected for heart rate (QTc) values by, e.g., using the formula by Funck-Bretano and Jaillon (1993).
Statistical Analysis. […] Dose-level averages (and accompanying standard deviation (s.d.) of these baseline-adjusted 10 min averages are calculated across study animals. ANOVA (e.g., repeated measures ANOVA) are applied to these baseline-adjusted averages. Pairwise t-tests are applied within the ANOVA to identify the presence of significant differences of the dose levels relative to vehicle. These t-tests are performed at a 0.05/2=0.025 significance level, so that the overall error rate across the comparisons in a given interval are not higher than 0.05. ECG interval data (reported at 30 min intervals) are analyzed using, e.g., repeated-measures ANOVA techniques similar to the systemic blood pressure and heart rate data described above.

Another series addresses D3 (Homo sapiens, UniProt P35462). Kind of series: Radioligand binding affinity, D3.

This is an account of results in patent US9844554B2 (Neurogastrx, Inc., priority 2014, dated 2017).

pIC50: −log10 of the molar value.

Broadly, the Ki is a measure of affinity in units of concentration, obtained from inhibition or displacement. Read a low Ki as higher affinity.

Sequence of hERG channel (Q12809 whole entry): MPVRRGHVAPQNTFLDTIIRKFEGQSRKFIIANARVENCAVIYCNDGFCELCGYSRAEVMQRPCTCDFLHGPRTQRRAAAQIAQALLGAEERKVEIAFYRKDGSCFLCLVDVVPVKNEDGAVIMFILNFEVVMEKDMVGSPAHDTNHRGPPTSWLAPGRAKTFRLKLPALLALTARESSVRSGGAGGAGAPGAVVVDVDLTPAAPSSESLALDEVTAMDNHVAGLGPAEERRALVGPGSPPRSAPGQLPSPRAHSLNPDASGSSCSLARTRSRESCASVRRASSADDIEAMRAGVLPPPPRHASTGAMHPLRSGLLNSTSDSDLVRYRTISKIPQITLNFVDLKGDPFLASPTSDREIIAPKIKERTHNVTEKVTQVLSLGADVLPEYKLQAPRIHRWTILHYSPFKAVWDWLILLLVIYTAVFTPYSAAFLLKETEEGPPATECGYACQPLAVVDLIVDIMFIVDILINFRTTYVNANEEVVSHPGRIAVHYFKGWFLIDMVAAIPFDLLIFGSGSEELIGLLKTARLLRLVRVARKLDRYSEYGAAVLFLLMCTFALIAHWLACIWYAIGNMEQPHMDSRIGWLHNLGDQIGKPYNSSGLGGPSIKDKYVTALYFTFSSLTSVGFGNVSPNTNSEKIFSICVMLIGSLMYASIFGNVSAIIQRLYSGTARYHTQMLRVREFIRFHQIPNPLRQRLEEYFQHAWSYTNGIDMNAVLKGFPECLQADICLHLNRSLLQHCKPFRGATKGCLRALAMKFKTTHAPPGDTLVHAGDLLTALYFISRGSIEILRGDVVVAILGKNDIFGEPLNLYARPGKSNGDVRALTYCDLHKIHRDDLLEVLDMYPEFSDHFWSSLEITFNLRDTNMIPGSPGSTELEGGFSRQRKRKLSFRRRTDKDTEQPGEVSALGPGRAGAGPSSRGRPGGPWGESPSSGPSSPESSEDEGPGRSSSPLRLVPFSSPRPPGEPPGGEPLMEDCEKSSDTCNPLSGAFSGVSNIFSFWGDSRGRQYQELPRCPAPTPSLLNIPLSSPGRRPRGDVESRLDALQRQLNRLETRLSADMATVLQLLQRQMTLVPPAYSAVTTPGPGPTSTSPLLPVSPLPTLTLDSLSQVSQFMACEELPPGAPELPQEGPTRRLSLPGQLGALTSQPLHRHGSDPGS
Sequence of D3 (P35462 whole entry): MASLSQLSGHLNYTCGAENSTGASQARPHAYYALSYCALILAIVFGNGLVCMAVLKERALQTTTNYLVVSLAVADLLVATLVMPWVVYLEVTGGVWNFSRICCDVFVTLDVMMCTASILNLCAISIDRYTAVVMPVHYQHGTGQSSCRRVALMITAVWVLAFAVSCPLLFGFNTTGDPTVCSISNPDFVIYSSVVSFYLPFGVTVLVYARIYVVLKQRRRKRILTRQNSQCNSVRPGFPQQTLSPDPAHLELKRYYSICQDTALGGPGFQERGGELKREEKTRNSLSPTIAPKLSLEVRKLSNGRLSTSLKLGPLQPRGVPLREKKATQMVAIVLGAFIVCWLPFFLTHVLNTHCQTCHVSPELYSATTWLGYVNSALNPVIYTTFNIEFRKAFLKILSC

Regarding `CS(=O)(=O)c1ccc2c(c1)N(CCCN1CCC(C(N)=O)CC1)c1ccccc1S2` [Metopimazine, 1-[3-[2-(methylsulfonyl)-10H-phenothiazin-10-yl]propyl]-piperidine-4-carboxamide], the inhibition constant Ki on α1 amounted to 1.9 nM; on 5HT2, 15 nM. Besides, at hERG channel, the pIC50 was ~5.52. For the same compound, the motor dysfunction result in series [1] is listed as “no motor dysfunction was observed”. Also, the “overall increase in gastric emptying as compared to vehicle control” value in series [2] (rats, pooling the 3 mg/kg and 10 mg/kg doses) was “about 20%”. Besides, in series [3], the QTc intervals result is listed as “no significant increases in QTc intervals”.
For the compound `CS(=O)(=O)c1ccc2c(c1)N(CCCN1CCC(C(=O)O)CC1)c1ccccc1S2` [Metopimazine-Acid, metopimazine acid], the figures for the inhibition constant Ki on D3, at α1 and at 5HT2 were > 100 nM, 210 nM and 370 nM, respectively. In addition, at hERG channel, the pIC50 was < 5.00. Further, the QTc intervals entry in series [3] was “no significant increases in QTc intervals”.
On to `C[C@@](Cc1ccc(O)c(O)c1)(NN)C(=O)O` [S-Carbidopa, (25)-3-(3,4-dihydroxyphenyl)-2-hydrazino-2-methylpropanoic acid], for which the motor dysfunction result in series [1] and in series [2] (rats administered carbidopa) was “no motor dysfunction was observed” throughout. The “motility index (MI), antral manometry” value in series [1] (1 mg/kg IV 15 min prior to meal, all three channels, p=0.05) was “robustly increased MI”. The “solid gastric emptying compared to control rats” value in series [2] (rats, initial results) was “improves solid gastric emptying”. Also, the QTc intervals result in series [3] is reported as “no significant increases in QTc intervals”.
For the compound `CN(CCOc1ccc(NS(C)(=O)=O)cc1)CCc1ccc(NS(C)(=O)=O)cc1` [dofetilide], the “incidence of ECG abnormalities” value in series [3] (0.3 mg/kg oral gavage) is “increases the incidence of premature ventricular contractions, T-wave abnormalities, and right bundle branch block”. The QTc intervals result in series [3] is given as “QTc intervals are increased”.
As for `Cl.NCCc1ccc(O)c(O)c1` [dopamine hydrochloride, Dopamine hydrochloride], the “motility index (MI), antral manometry” value in series [1] (50 mg/canine IV immediately before meal, all channels, p=0.06) is on record as “decreased MI”.
